pEC50: −log10 of the molar value.
How the values were obtained:
primary cortical neurons = assay: Trophic factor withdrawal (TFW) assay; type: cell-based, rat; details: Trophic factor withdrawal assay; read-out: TFW EC50
Description: FIG. 1A illustrates the results of a trophic factor withdrawal assay. Primary cortical neurons are prepared from 18-day-old rat embryos, and cultured at low cell density 1×10^6/35 mm dish, in serum containing medium, with different compounds Viability is then assayed 2 days later using a fluorescent live-dead assay (Molecular Probes).
Primary cortical neurons can be prepared from 18-day-old embryos of Sprague-Dawley rats as described (Liu & Schubert, J. Neurochem., 1997, 69:2285-2293 and J. Neurochem., 1998, 71:2322-2329). Briefly, the cerebral cortex is dissected out under an anatomical microscope and is freed of meninges and blood vessels. The cortex is cut into small pieces and is then dissociated by trypsin digestion and passed through a pipette tip. Dissociated neurons are suspended in various media and plated on polylysine-coated 35 mm tissue culture dishes (e.g., 1×10^6 cells/dish). Several different culture conditions can be used as known in the art. Invention compounds can be added to cell culture dishes. Cell survival can be measured 1-2 days after compound administration.
A serum-containing medium can be used which includes a minimal essential medium (Sigma) containing 30 mM glucose, 2 mM glutamine, 1 mM pyruvate, penicillin (100 U/ml), streptomycin (100 μg/ml), and 10% fetal calf serum. At a plating density of 1×10^6 cells/dish, most neurons die after one week of culture in this medium. If plated at a density of 2×10^6 cells/dish, then most neurons survive. The cell density-dependent neuronal survival in this system is most likely dependent on the neurotrophic factors secreted by the neurons, not by the glia. The results are the same when glial proliferation is inhibited by cytosine arabinoside.
The structure-activity relationships of compounds according to the present invention can be determined by measuring trophic factor withdrawal in […] primary cortical neurons. As shown in FIG. 1A-FIG. 1D, compounds are added to low density primary cultures of E18 rat cortical neurons at the time of plating, and cell survival is determined two days later by a variety of methods.

HT22 cells = assay: HT22 oxidative glutamate toxicity (oxytosis) assay; type: cell-based, mouse; details: Oxidative glutamate toxicity (oxytosis); read-out: HT-22 EC50
Description: FIG. 1D illustrates the results of an oxidative stress assay. HT22 cells were treated with 5 mM glutamate and different concentrations of two versions of curcumin derivatives. Cell viability was measured 24 hr later by the MTT assay (J. B. Davis and P. Maher, Protein kinase C activation inhibits glutamate-induced cytotoxicity in a neuronal cell line. Brain Res. 652 (1994) 169-173). Legend for FIG. 1A, FIG. 1B and FIG. 1D: x-x, Cmpd CNB-001, o-o, Cmpd J147.
Similar toxicity assays as described above are also conducted with invention compounds using HT22 cells in an assay for oxidative stress. After exposure with 1 mM, 2 mM, 2.5 mM, or 5 mM glutamate, cell viability is determined with the MTT assay.
HT22 hippocampal neurons are treated with 5 mM glutamate and increasing concentrations of invention compounds. Cell viability is measured 24 hr later by the MTT assay (Davis and Maher, Brain Res. 652:169-173 (1994)).

MC-65 cells = assay: MC65 intracellular amyloid toxicity assay; type: cell-based; details: Intracellular amyloid toxicity; read-out: MC65 EC50
Description: FIG. 4A illustrates the viability of MC-65 cells upon exposure to the indicated concentrations of compounds, and the degree to which synthesis of the C-terminal fragment of APP is induced by the removal of tetracycline. Cell death was determined 5 days later by the MTT assay and confirmed visually. The data are plotted as percent viable, relative to controls of drug plus un-induced cells.

Wistar rats = assay: Novel object recognition task in rats; type: in vivo, rat
Description: FIG. 6 illustrates the effect of galantamine, compounds CNB-001, J147, SK186 and SKI 87 on object recognition task in Wistar rats. The data represent mean±SEM. *p<0.05 compared with the vehicle control.
This model is based on the greater spontaneous exploration of a novel object, compared with a familiar object, shown by rodents (see Ennaceur and Delacour in Behav. Brain Res. 31:47 (1988)). Male Wister rats are assessed for cognitive ability in a test apparatus comprising an open-field arena placed in a sound-attenuated room under dimmed lighting. Images of the open-field are captured by digital camera, and viewed on a monitor in an adjoining room. Each rat is subjected to the procedure separately and care is taken to remove any olfactory/taste cues by cleaning the arena and test objects with alcohol between trials and rats.
Adult male Wistar rats were employed in all rat studies. Animals were placed in the experimental rooms at postnatal day 80 and assigned unique identification numbers (tail marked). Pairs were housed in polycarbonate cages with filter tops and acclimated for 3 days prior to commencing any studies. Animals were maintained in a 12 hour light/dark cycle with room temperature maintained at 22±2° C. with a relative humidity maintained approximately 50%. Food and water were provided ad libitum.
All animals were examined, handled, and weighed for a further two days prior to initiation of the study to assure adequate health and suitability and to minimize non-specific stress associated with manipulation. Each animal was randomly assigned across the treatment groups and balanced by cage numbers. The novel object recognition experiment was performed during the animal's light cycle phase. Drug treatments were balanced across days and animals were only used once
The following compounds were used for this study—Reference compound (Galantamine; 3 mg/kg) was dissolved in 0.9% saline and administered i.p. 1 hour pre-test at a dose volume of 1 ml/kg, and all test compounds were handled in solution, and were kept at −80° C. until use. All compounds were administered orally 60 min prior to training at a volume of 1 ml/kg body weight.
Following a 5-minute habituation period, each rat was placed into the test arena in the presence of two identical objects (plastic shapes). Each rat was placed facing the same direction at the same position in the arena, and the time spent actively exploring the objects during a 5-minute test period (T1) was recorded. The rat was returned to its home cage between tests. After 24 hours, each rat was again placed in the test arena for 5 minutes (T2) in the presence of one of the familiar objects and a novel object, and the time spent exploring both objects was again recorded. The presentation order and position of the objects (left/right) was randomized between rats to prevent bias from order or place preference. A preference index for each object, the ratio of the time spent exploring either the familiar object or the novel object over the total time spent exploring both objects (during retention session T2) was used to measure cognitive function.
Data were analyzed by a one-way analysis of variance (ANOVA) followed by post-hoc comparisons with Fisher Tests when appropriate. An effect was considered significant if p<0.05. Data in the following tables are presented as the mean and standard error to the mean.

Row | SMILES | pEC50 (primary cortical neurons) | pEC50 (HT22 cells) | pEC50 (MC-65 cells) | Recognition index, Mean (Wistar rats; 3 mg/kg i.p. 1 hour pre-test, Wistar rats, n=8) | Fisher's PLSD for Recognition index, Mean Diff. (*vehicle, treatment) (Wistar rats; vehicle versus 3 mg/kg i.p.)
1 | COc1cccc(C=NN(C(=O)C(F)(F)F)c2ccccc2C)c1 [HF 43 FO] | < 6.00 | 7.17 | 6.89 | – | –
2 | Cc1ccc(N(N=Cc2ccccc2)C(=O)C(F)(F)F)cc1 [HF 41FP] | < 6.00 | 7.48 | < 6.00 | – | –
3 | COc1ccc2c3c1O[C@H]1C[C@@H](O)C=C[C@@]31CCN(C)C2 [Galantamine, reference compound] | – | – | – | 74.037 | −22.114
4 | Cc1ccc(N(N=Cc2ccccc2)C(=O)C(F)(F)F)c(C)c1 [HF 39FP] | < 6.00 | 7.43 | 6.66 | – | –
5 | COc1cccc(C=NN(C(C)=O)c2ccc(C)cc2C)c1 [Compound J147A] | < 6.00 | 7.15 | 6.55 | – | –

More lines, in order of rising pEC50 (primary cortical neurons), values ahead:

Row | pEC50 (primary cortical neurons) | SMILES | pEC50 (HT22 cells) | pEC50 (MC-65 cells) | Recognition index, Mean (Wistar rats; 3 mg/kg i.p. 1 hour pre-test, Wistar rats, n=8) | Fisher's PLSD for Recognition index, Mean Diff. (*vehicle, treatment) (Wistar rats; vehicle versus 3 mg/kg i.p.)
6 | 6.10 | Cc1ccccc1N(N=Cc1ccccc1)C(=O)C(F)(F)F [HF 43FP] | 7.30 | 6.40 | – | –
7 | 6.15 | COc1cccc(C=NN(C(=O)C(F)(F)F)c2ccc(C)cc2)c1 [HF 42FP] | 7.10 | 7.30 | – | –
8 | 6.52 | Cc1ccc(N(N=Cc2ccc(C(=O)O)cc2)C(=O)C(F)(F)F)c(C)c1 [Sk36] | 7.00 | 6.52 | – | –
9 | 7.00 | COc1cccc(C=NN(C(=O)C(F)(F)F)c2ccccc2)c1 [HF 40FP] | 7.12 | 6.60 | – | –
10 | 7.15 | O=C(N(N=Cc1ccccc1)c1ccccc1)C(F)(F)F [HF 38FP] | 7.48 | 7.10 | – | –
11 | 7.46 | COc1ccc(C=NN(C(=O)C(F)(F)F)c2ccc(C)cc2C)cc1 [Sk35] | 8.40 | 8.00 | – | –

From US8779002B2, “Methods for treating a variety of diseases and conditions, and compounds useful therefor” (Salk Institute for Biological Studies, priority 2007, dated 2014)
